Biological target: Keap1 (Homo sapiens, UniProt Q14145)
Test: biolayer interferometry (Octet K2), biotinylated human Keap1 on the sensor
Assay type: binding

Keap1, sequence (Q14145 whole entry): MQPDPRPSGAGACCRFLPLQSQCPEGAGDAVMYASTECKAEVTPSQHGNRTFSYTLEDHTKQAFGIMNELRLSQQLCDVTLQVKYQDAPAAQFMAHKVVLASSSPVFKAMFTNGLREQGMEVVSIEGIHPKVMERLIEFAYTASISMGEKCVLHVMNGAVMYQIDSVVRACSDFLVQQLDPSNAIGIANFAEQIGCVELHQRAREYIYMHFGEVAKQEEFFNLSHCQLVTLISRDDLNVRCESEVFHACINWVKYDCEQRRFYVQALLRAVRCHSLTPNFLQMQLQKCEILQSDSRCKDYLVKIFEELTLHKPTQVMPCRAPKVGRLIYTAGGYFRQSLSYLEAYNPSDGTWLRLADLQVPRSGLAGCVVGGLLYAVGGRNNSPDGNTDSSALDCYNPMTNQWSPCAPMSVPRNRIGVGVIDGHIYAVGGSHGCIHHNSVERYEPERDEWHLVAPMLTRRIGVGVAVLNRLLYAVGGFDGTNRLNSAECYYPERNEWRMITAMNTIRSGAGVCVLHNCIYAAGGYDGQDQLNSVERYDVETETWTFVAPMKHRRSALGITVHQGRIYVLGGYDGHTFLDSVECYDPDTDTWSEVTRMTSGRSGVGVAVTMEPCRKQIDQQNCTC

With `CC(=O)O[C@H]1CC(C)(C)C(=C=C/C(C)=C/C=C/C(C)=C/C=C/C=C(C)/C=C/C=C(\C)C(=O)C[C@@]23O[C@]2(C)C[C@@H](O)CC3(C)C)[C@](C)(O)C1` [FUC, fucoxanthin] the Kd was 5.16E − 5.

— paper PMC7972864, “Fucoxanthin Prevents 6-OHDA-Induced Neurotoxicity by Targeting Keap1” (Oxidative Medicine and Cellular Longevity, 2021)
